Active and inactive are the calls of the source. The rule behind the calls is not given here. Where a SMILES comes first, the peptide text is derived from it. [ ]: non-standard residue; d: D form. The star is where a group is joined. dHyp = O=C(O)[C@H]1C[C@H](O)CN1; Cha = N[C@@H](CC1CCCCC1)C(=O)O; Aib = CC(C)(N)C(=O)O; Bz = O=C(c1ccccc1)*
Assays:
Mus musculus [1] = test: Anorectic activity in lean C57BL/6J mouse assessed as inhibition of cumulative food intake at 3 to 300 nmol/kg through bolus subcutaneous administration measured 3 to 24 hrs post dose; type: functional, organism-based
[2] = Cmax in C57BL/6J mouse at 1 mg/kg, sc by LC/MS/MS analysis; type: ADME, organism-based; design: dose 1 mg/kg, route subcutaneous; settings: in vivo
[3] = Mean residence time in C57BL/6J mouse at 1 mg/kg, iv by LC/MS/MS analysis; type: ADME, organism-based; settings: in vivo
[4] = Total clearance in C57BL/6J mouse at 1 mg/kg, iv by LC/MS/MS analysis; type: ADME, organism-based; settings: in vivo
[5] = biological target: T1, Neuropeptide Y receptor type 2 (Homo sapiens, UniProt P49146); test: Agonist activity at human Y2 receptor expressed in CHO cell membranes after 120 mins by [35S]GTPgammaS binding assay; type: functional
T1 sequence (P49146 whole entry): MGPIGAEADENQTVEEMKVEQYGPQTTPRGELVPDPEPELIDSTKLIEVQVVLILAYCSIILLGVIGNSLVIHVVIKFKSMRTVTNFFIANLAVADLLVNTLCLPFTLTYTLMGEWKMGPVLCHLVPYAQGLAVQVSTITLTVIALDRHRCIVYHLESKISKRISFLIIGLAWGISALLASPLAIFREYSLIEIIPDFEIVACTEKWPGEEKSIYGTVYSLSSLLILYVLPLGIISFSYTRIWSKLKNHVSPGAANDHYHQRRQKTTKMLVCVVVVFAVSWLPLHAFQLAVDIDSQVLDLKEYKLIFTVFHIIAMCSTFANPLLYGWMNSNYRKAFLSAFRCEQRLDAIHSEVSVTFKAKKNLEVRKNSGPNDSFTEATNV

Mus musculus [6] = test: Antidiabetic activity in type 2 diabetes obese mouse assessed as reduction in plasma glucose level at 0.03 to 0.3 mg/kg/day administered via subcutaneous osmotic pumps by continuous dosing for 11 days; type: functional, organism-based
Mus musculus [7] = test: Anorectic activity in C57BL/6J mouse assessed as inhibition of food intake at 0.3 mg/kg/day, sc administered by infusion as continuous dosing for 3 days relative to 1 mg/kg/day PYY (3 to 36 residues); type: functional
[8] = Tmax in C57BL/6J mouse at 1 mg/kg, sc by LC/MS/MS analysis; type: ADME, organism-based; settings: in vivo
[9] = AUC (0 to 24 hrs) in C57BL/6J mouse at 1 mg/kg, iv by LC/MS/MS analysis; type: ADME, organism-based; design: time < 24 hr, dose 1 mg/kg, route intravenous; settings: in vivo
[10] = AUC (0 to 24 hrs) in C57BL/6J mouse at 1 mg/kg, sc by LC/MS/MS analysis; type: ADME, organism-based; design: dose 1 mg/kg, time < 24 hr, route subcutaneous; settings: in vivo
Mus musculus [11] = test: Anorectic activity in lean C57BL/6J mouse assessed as inhibition of cumulative food intake at 3 to 300 nmol/kg through bolus subcutaneous administration measured 24 hrs post dose; type: functional, organism-based
Mus musculus [12] = test: Anorectic activity in C57BL/6J mouse assessed as inhibition of food intake at 0.1 mg/kg/day, sc administered by infusion as continuous dosing for 3 days relative to 1 mg/kg/day PYY (3 to 36 residues); type: functional
[13] = biological target: T1, Neuropeptide Y receptor type 2; test: Displacement of [125I]peptide YY from human Y2 receptor expressed in CHO cell membranes after 60 mins by TopCount scintillation counting analysis
Mus musculus [14] = test: Anorectic activity in C57BL/6J mouse assessed as inhibition of food intake at 0.03 mg/kg/day, sc administered by infusion as continuous dosing for 3 days relative to 1 mg/kg/day PYY (3 to 36 residues); type: functional
Mus musculus [15] = test: Mean absorption time in C57BL/6J mouse at 1 mg/kg, sc by LC/MS/MS analysis; type: ADME, organism-based; settings: in vivo
[16] = Bioavailability in C57BL/6J mouse at 1 mg/kg, sc by LC/MS/MS analysis; type: ADME, organism-based; settings: in vivo
[17] = Mean residence time in C57BL/6J mouse at 1 mg/kg, sc by LC/MS/MS analysis; type: ADME, organism-based; settings: in vivo
Mus musculus [18] = test: Antiobesity activity in obese C57BL/6J mouse assessed as inhibition of cumulative food intake at 0.03 to 0.3 mg/kg/day administered via subcutaneous osmotic pumps by continuous dosing for 11 days; type: functional, organism-based
[19] = Volume of distribution at steady state in C57BL/6J mouse at 1 mg/kg, iv by LC/MS/MS analysis; type: ADME, organism-based; settings: in vivo, read-out: Vdss
Mus musculus [20] = test: Antidiabetic activity in type 2 diabetes obese mouse assessed as reduction in glycated hemoglobin level at 0.03 to 0.3 mg/kg/day administered via subcutaneous osmotic pumps by continuous dosing for 11 days; type: functional, organism-based
Mus musculus [21] = test: Antiobesity activity in obese C57BL/6J mouse assessed as body weight loss at 0.3 mg/kg/day administered via subcutaneous osmotic pumps by continuous dosing measured on day 11 relative to control; type: functional
[22] = Plasma concentration in C57BL/6J mouse at 1 mg/kg, iv after 5 mins by LC/MS/MS analysis; type: ADME, organism-based
Mus musculus [23] = test: Anorectic activity in C57BL/6J mouse assessed as inhibition of food intake at 1 mg/kg/day, sc administered by infusion as continuous dosing for 3 days relative to 1 mg/kg/day PYY (3 to 36 residues); type: functional; settings: 72 h

Row | SMILES | EC50 [5] [nM] | IC50 [13] [nM] | MAT (Mus musculus [15]) [h] | bioavailability [16] [%] | inhibition (INH) (Mus musculus [12]) [%] | inhibition in vivo at 1 mg/kg/day (Mus musculus [23]) [%] | further results
1 | CC(=O)N[C@@H](CO)C(=O)N1CCC[C@@H]1C(=O)N[C@@H](CCCNC(=N)N)C(=O)N[C@@H](Cc1ccncc1)C(=O)N[C@@H](CC1CCCCC1)C(=O)NC(C)(C)C(=O)N[C@@H](CC(N)=O)C(=O)N[C@@H](CCCCN)C(=O)NC(C)(C)C(=O)N[C@H](C(=O)N[C@@H](CCCNC(=N)N)C(=O)N[C@@H](CCC(N)=O)C(=O)N[C@@H](CCCNC(=N)N)C(=O)N[C@@H](CC1CCCCC1)C(N)=O)[C@@H](C)O | 0.2 | 0.92 | 0.1 | 66.6 | 80 | – | inhibition (Mus musculus [1]): Active; Cmax [2]: 283 nM; MRT [3]: 20.4 min; clearance [4]: 39.9 mL/min/kg; Activity (Mus musculus [6]): Active; inhibition (INH) (Mus musculus [7]): 112%; Tmax [8]: 10.2 min; AUC(0-t) at 24 h [9]: 0.231 µM·h; AUC(0-t) at 24 h [10]: 0.154 µM·h; Activity (Mus musculus [11]): Active; inhibition (INH) (Mus musculus [14]): 38%; MRT [17]: 26.4 min; inhibition (Mus musculus [18]): Active; Vd [19]: 0.809 L/kg; Activity (Mus musculus [20]): Active; Activity (Mus musculus [21]): 23%; concentration at 5 min [22]: 1060 nM
2 | CC(=O)N[C@@H](CO)C(=O)N1C[C@@H](O)C[C@@H]1C(=O)N[C@@H](CCCNC(=N)N)C(=O)N[C@@H](Cc1cnc[nH]1)C(=O)N[C@@H](CC1CCCCC1)C(=O)N[C@@H](CC1CCCCC1)C(=O)N[C@@H](CC(N)=O)C(=O)N[C@@H](CC(C)C)C(=O)NC(C)(C)C(=O)N[C@H](C(=O)N[C@@H](CCCNC(=N)N)C(=O)N[C@@H](CCC(N)=O)C(=O)N[C@@H](CCCNC(=N)N)C(=O)N[C@@H](CC1CCCCC1)C(N)=O)[C@@H](C)O (Ac-S[dHyp]RH[Cha][Cha]NL[Aib]TRQR[Cha]-NH2) | 0.2 | 0.7 | 0.14 | 18.6 | 18 | – | –
3 | CC(C)C[C@H](NC(=O)[C@H](CC(N)=O)NC(=O)[C@H](CC1CCCCC1)NC(=O)[C@H](CC1CCCCC1)NC(=O)[C@H](Cc1cnc[nH]1)NC(=O)[C@H](CCCNC(=N)N)NC(=O)c1ccccc1)C(=O)NC(C)(C)C(=O)N[C@H](C(=O)N[C@@H](CCCNC(=N)N)C(=O)N[C@@H](CCC(N)=O)C(=O)N[C@@H](CCCNC(=N)N)C(=O)N[C@@H](CC1CCCCC1)C(N)=O)[C@@H](C)O (Bz-RH[Cha][Cha]NL[Aib]TRQR[Cha]-NH2) | 2 | 7.4 | 2.72 | 5.9 | – | – | –

Continued, in another order:

Row | EC50 [5] [nM] | IC50 [13] [nM] | MAT (Mus musculus [15]) [h] | bioavailability [16] [%] | SMILES | inhibition (INH) (Mus musculus [12]) [%] | inhibition in vivo at 1 mg/kg/day (Mus musculus [23]) [%] | further results
4 | 0.61 | 1.5 | – | – | CC(=O)N[C@@H](CO)C(=O)N1CCC[C@@H]1C(=O)N[C@@H](CCCNC(=N)N)C(=O)N[C@@H](Cc1cnc[nH]1)C(=O)N[C@@H](CC1CCCCC1)C(=O)N[C@@H](CC1CCCCC1)C(=O)N[C@@H](CC(N)=O)C(=O)N[C@@H](CC(C)C)C(=O)NC(C)(C)C(=O)N[C@H](C(=O)N[C@@H](CCCNC(=N)N)C(=O)N[C@@H](CCC(N)=O)C(=O)N[C@@H](CCCNC(=N)N)C(=O)N[C@@H](CC1CCCCC1)C(N)=O)[C@@H](C)O (Ac-S[dP]RH[Cha][Cha]NL[Aib]TRQR[Cha]-NH2) | – | 33 | –
5 | 0.66 | 1.4 | – | – | CC(=O)N[C@@H](CO)C(=O)N1CCC[C@@H]1C(=O)N[C@@H](CCCNC(=N)N)C(=O)N[C@@H](Cc1cnc[nH]1)C(=O)N[C@@H](CC1CCCCC1)C(=O)NC(C)(C)C(=O)N[C@@H](CC(N)=O)C(=O)N[C@@H](CC(C)C)C(=O)NC(C)(C)C(=O)N[C@H](C(=O)N[C@@H](CCCNC(=N)N)C(=O)N[C@@H](CCC(N)=O)C(=O)N[C@@H](CCCNC(=N)N)C(=O)N[C@@H](CC1CCCCC1)C(N)=O)[C@@H](C)O | – | 59 | –

Source: ChEMBL document CHEMBL4052740, “Potent antiobesity effect of a short-length peptide YY-analogue continuously administered in mice” (Bioorg Med Chem Lett, 2017)
